# Experimental data from patent publication US11970463B2, “Compounds and their use” (ASTRAZENECA AB, priority 2021, dated 2024).
# Where two headings read alike, the source gives them in different places.
# Tests used:
# [1] = Solubility (Test F), McIlvaine buffer pH 6.5; type: physicochemical; conditions: McIlvaine buffer pH 6.5, 25° C., 24 to 72 h, theoretical maximum 200 μM; for solubility: disodium hydrogenphosphate-citric acid (McIlvaine) buffer, 25 °C, pH 6.5, aqueous buffer, thermodynamic from solid
# Human NLRP3 [2] = biological target: T1, Human NLRP3 (Homo sapiens (Human), UniProt Q96P20)
# Human NLRP3 [3] = biological target: T1, Human NLRP3; assay: Human NLRP3 speck formation assay (Test A), nigericin triggered ASC-speck formation in ASC-GFP reporter monocytes
# Solubility (Test E) = type: physicochemical
# [4] = Test C IC50, IL-1β release, THP-1 cells, LPS 2 μg/mL 24 h, BzATP 1 mM
# T1 sequence (Q96P20 whole entry): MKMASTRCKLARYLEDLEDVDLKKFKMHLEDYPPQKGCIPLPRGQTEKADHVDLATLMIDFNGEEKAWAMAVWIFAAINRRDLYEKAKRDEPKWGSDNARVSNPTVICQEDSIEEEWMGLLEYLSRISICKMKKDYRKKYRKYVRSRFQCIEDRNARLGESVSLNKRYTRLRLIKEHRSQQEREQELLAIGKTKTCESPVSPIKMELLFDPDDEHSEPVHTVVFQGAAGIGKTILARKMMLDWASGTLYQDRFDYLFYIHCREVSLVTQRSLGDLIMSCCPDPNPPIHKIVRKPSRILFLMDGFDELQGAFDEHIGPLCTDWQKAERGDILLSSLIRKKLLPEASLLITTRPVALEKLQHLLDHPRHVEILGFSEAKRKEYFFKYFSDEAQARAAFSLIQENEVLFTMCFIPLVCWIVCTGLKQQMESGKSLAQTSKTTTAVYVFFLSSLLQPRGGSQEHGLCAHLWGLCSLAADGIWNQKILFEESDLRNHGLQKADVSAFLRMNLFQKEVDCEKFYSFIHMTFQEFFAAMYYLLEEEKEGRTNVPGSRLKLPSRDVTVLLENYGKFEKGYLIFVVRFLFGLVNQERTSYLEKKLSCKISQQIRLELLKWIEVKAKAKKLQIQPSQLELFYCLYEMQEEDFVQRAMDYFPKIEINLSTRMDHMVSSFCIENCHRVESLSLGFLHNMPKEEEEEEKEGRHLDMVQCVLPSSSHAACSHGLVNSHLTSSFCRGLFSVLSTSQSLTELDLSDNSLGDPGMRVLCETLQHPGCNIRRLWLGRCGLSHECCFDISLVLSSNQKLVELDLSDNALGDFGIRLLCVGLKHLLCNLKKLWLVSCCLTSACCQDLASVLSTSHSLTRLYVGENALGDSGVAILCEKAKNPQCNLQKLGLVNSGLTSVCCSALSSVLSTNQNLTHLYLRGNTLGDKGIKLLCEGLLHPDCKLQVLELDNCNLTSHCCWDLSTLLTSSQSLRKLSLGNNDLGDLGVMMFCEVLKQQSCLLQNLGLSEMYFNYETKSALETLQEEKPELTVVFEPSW
Structure (SMILES),solubility [1],IC50 (Human NLRP3 [2]; [4]),also measured
"Oc1cc(C(F)(F)F)ccc1-c1nnc(N[C@@H]2CCC[C@H](O)C2)c2ccncc12 [Example 43, 2-[1-[[(1R,3S)-3-hydroxycyclohexyl]amino]pyrido[3,4-d]pyridazin-4-yl]-5-(trifluoromethyl)phenol]",37.3 µg/mL,,
"OC[C@@H](O)CNc1nnc(-c2ccc(C(F)(F)F)cc2O)c2ccncc12 [Example 88, (2S)-3-[[1-[2-hydroxy-4-(trifluoromethyl)phenyl]pyrido[3,4-d]pyridazin-4-yl]amino]propane-1,2-diol]",> 76.1 µg/mL,,
"OC[C@@H](O)CNc1nnc(-c2cc(F)c(F)cc2O)c2ccccc12 [Example 3, (2S)-3-[[4-(4,5-difluoro-2-hydroxy-phenyl)phthalazin-1-yl]amino]propane-1,2-diol]",68.6 µg/mL,474 nM,
"CCc1ccc(-c2nnc(N[C@@H]3CCC[C@H](O)C3)c3cnccc23)c(O)c1 [Example 51, 5-ethyl-2-[4-[[(1R,3S)-3-hydroxycyclohexyl]amino]pyrido[3,4-d]pyridazin-1-yl]phenol]",> 72.9 µg/mL,4 nM,
"C[C@]1(O)C[C@@H](Nc2nnc(-c3c(O)cccc3F)c3ccccc23)C1 [Example 36, 3-fluoro-2-(4-(((1s,3s)-3-hydroxy-3-methylcyclobutyl)amino)phthalazin-1-yl)phenol]",43 µg/mL,,IC50 (Human NLRP3 [2]): 976 nM
"Oc1cc(C(F)(F)F)ccc1-c1nnc(N[C@@H]2CCC[C@H](O)C2)c2ncccc12 [Example 89, 2-[8-[[(1R,3S)-3-hydroxycyclohexyl]amino]pyrido[2,3-d]pyridazin-5-yl]-5-(trifluoromethyl)phenol]",22.1 µg/mL,,
"Oc1cccc(F)c1-c1nnc(N[C@@H]2CCCC[C@H]2O)c2ccncc12 [Example 77, 3-fluoro-2-(1-(((1R,2R)-2-hydroxycyclohexyl)amino)pyrido[3,4-d]pyridazin-4-yl)phenol]",,,EC50 (Human NLRP3 [3]): 2930 nM
"Oc1cc(C(F)(F)F)ccc1-c1nnc(N[C@H]2CCC[C@@H]2O)c2ccccc12 [Example 22, 2-[4-[[(1S,2S)-2-hydroxycyclopentyl]amino]phthalazin-1-yl]-5-(trifluoromethyl)phenol]",9.2 µg/mL,187 nM,EC50 (Human NLRP3 [3]): 2410 nM; solubility (Solubility (Test E)): 172 µM
"Oc1cc(C(F)(F)F)ccc1-c1nnc(N[C@H]2CCC[C@@H](O)C2)c2cnccc12 [Example 82, 2-[4-[[(1S,3R)-3-hydroxycyclohexyl]amino]pyrido[3,4-d]pyridazin-1-yl]-5-(trifluoromethyl)phenol]",9.4 µg/mL,,solubility (Solubility (Test E)): 34 µM
"OC[C@@H](O)CNc1nnc(-c2c(O)cc(F)cc2F)c2ccccc12 [Example 8, (2S)-3-[[4-(2,4-difluoro-6-hydroxy-phenyl)phthalazin-1-yl]amino]propane-1,2-diol]",11.8 µg/mL,159 nM,
"Oc1cc(F)ccc1-c1nnc(N[C@@H]2CCCC[C@H]2O)c2ccncc12 [Example 78, 5-fluoro-2-(1-(((1R,2R)-2-hydroxycyclohexyl)amino)pyrido[3,4-d]pyridazin-4-yl)phenol]",,,EC50 (Human NLRP3 [3]): 1140 nM; solubility (Solubility (Test E)): 958 µM
"C[C@]1(O)C[C@@H](Nc2nnc(-c3c(O)cccc3F)c3cccnc23)C1 [Example 90, 3-fluoro-2-(8-(((1s,3s)-3-hydroxy-3-methylcyclobutyl)amino)pyrido[2,3-d]pyridazin-5-yl)phenol]",> 68.1 µg/mL,,IC50 (Human NLRP3 [2]): 551 nM
"CC(C)(O)CNc1nnc(-c2ccc(Cl)cc2O)c2ccncc12 [Example 71, 5-chloro-2-[4-[(2-hydroxy-2-methyl-propyl)amino]pyrido[3,4-d]pyridazin-1-yl]phenol]",21.9 µg/mL,14 nM,
"OC[C@H](O)CNc1nnc(-c2ccc(C(F)(F)F)cc2O)c2ccccc12 [Example 12, (2R)-3-[[4-[2-hydroxy-4-(trifluoromethyl)phenyl]phthalazin-1-yl]amino]propane-1,2-diol]",36.4 µg/mL,,
"Oc1cc(C(F)(F)F)ccc1-c1nnc(N[C@H]2CC[C@@H](O)C2)c2ccccc12 (single isomer, unassigned) [Example 34]",9.3 µg/mL,18 nM,
"OC[C@@H](O)CNc1nnc(-c2c(O)cccc2F)c2ccccc12 [Example 4, (2S)-3-[[4-(2-fluoro-6-hydroxy-phenyl)phthalazin-1-yl]amino]propane-1,2-diol]",23.2 µg/mL,> 1000 nM,
"Oc1cc(F)ccc1-c1nnc(N[C@@H]2CC[C@@H](O)C2)c2cnccc12 [Example 85, 5-fluoro-2-(4-(((1R,3R)-3-hydroxycyclopentyl)amino)pyrido[3,4-d]pyridazin-1-yl)phenol]",,,EC50 (Human NLRP3 [3]): 481 nM; solubility (Solubility (Test E)): 68 µM
"C[C@]1(O)C[C@@H](Nc2nnc(-c3ccc(OC(F)(F)F)cc3O)c3ccncc23)C1 [Example 63, 2-(4-(((1s,3s)-3-hydroxy-3-methylcyclobutyl)amino)pyrido[3,4-d]pyridazin-1-yl)-5-(trifluoromethoxy)phenol]",0.8 µg/mL,,IC50 (Human NLRP3 [2]): 8 nM

Structure (SMILES),solubility [1],IC50 (Human NLRP3 [2]; [4]),also measured
"Oc1cccc(F)c1-c1nnc(N[C@@H]2CC[C@@H](O)C2)c2ccncc12 [Example 86, 3-fluoro-2-(1-(((1R,3R)-3-hydroxycyclopentyl)amino)pyrido[3,4-d]pyridazin-4-yl)phenol]",,,EC50 (Human NLRP3 [3]): 6150 nM
"CC(C)(O)CNc1nnc(-c2ccc(OC(F)(F)F)cc2O)c2ccncc12 [Example 72, 2-[4-[(2-hydroxy-2-methyl-propyl)amino]pyrido[3,4-d]pyridazin-1-yl]-5-(trifluoromethoxy)phenol]",5.8 µg/mL,22 nM,
"C[C@]1(O)C[C@@H](Nc2nnc(-c3cc(F)c(F)cc3O)c3ccncc23)C1 [Example 66, 4,5-difluoro-2-(4-(((1s,3s)-3-hydroxy-3-methylcyclobutyl)amino)pyrido[3,4-d]pyridazin-1-yl)phenol]",3.6 µg/mL,,IC50 (Human NLRP3 [2]): 570 nM
"C[C@]1(O)C[C@@H](Nc2nnc(-c3c(O)cccc3F)c3ccncc23)C1 [Example 64, 3-fluoro-2-(4-(((1s,3s)-3-hydroxy-3-methylcyclobutyl)amino)pyrido[3,4-d]pyridazin-1-yl)phenol]",> 68.1 µg/mL,,IC50 (Human NLRP3 [2]): 111 nM
"Cc1ccc(O)c(-c2nnc(NC[C@H](O)CO)c3ccccc23)c1 [Example 13, (2S)-3-[[4-(2-hydroxy-5-methyl-phenyl)phthalazin-1-yl]amino]propane-1,2-diol]",> 65.1 µg/mL,> 10000 nM,
"Oc1cccc(C(F)(F)F)c1-c1nnc(N[C@@H]2CCC[C@H](O)C2)c2cnccc12 (single isomer, unassigned) [Example 50]",,47 nM,
"Oc1cccc(F)c1-c1nnc(N[C@@H]2CC[C@H](O)C2)c2ccncc12 [Example 87, 3-fluoro-2-(1-(((1R,3S)-3-hydroxycyclopentyl)amino)pyrido[3,4-d]pyridazin-4-yl)phenol]",,,EC50 (Human NLRP3 [3]): 6150 nM; solubility (Solubility (Test E)): 25 µM
"Oc1cccc(C(F)(F)F)c1-c1nnc(N[C@@H]2CCC[C@H](O)C2)c2cnccc12 (single isomer, unassigned) [Example 49]",> 80.9 µg/mL,405 nM,
"Oc1cccc(C(F)(F)F)c1-c1nnc(N[C@@H]2CCC[C@H](O)C2)c2cnccc12 (racemic) [Example 50, 2-[4-[[(1R,3S)-3-hydroxycyclohexyl]amino]pyrido[3,4-d]pyridazin-1-yl]-3-(trifluoromethyl)phenol]",,,Test F Solubility [1]: >80.9 µg/mL
"Oc1cc(C(F)(F)F)ccc1-c1nnc(N[C@H]2CCC[C@H](O)C2)c2ccccc12 (single isomer, unassigned) [Example 29]",,,Test F Solubility [1]: 16.1 µg/mL
"OC[C@@H](O)CNc1nnc(-c2c(O)cccc2Cl)c2ccccc12 [Example 10, (2S)-3-[[4-(2-chloro-6-hydroxy-phenyl)phthalazin-1-yl]amino]propane-1,2-diol]",62.9 µg/mL,434 nM,
"Cc1ccc2c(-c3ccc(C(F)(F)F)cc3O)nnc(N[C@@H]3CCC[C@H](O)C3)c2n1 [Example 91, 2-[8-[[(1R,3S)-3-hydroxycyclohexyl]amino]-2-methyl-pyrido[2,3-d]pyridazin-5-yl]-5-(trifluoromethyl)phenol]",0.5 µg/mL,10 nM,
"C[C@]1(O)C[C@@H](Nc2nnc(-c3ccc(Cl)cc3O)c3ccncc23)C1 [Example 68, 5-chloro-2-(4-(((1s,3s)-3-hydroxy-3-methylcyclobutyl)amino)pyrido[3,4-d]pyridazin-1-yl)phenol]",,,EC50 (Human NLRP3 [3]): 19 nM; solubility (Solubility (Test E)): 44 µM; IC50 (Human NLRP3 [2]): 2 nM
"OC[C@@H](O)CNc1nnc(-c2ccc(C(F)(F)F)cc2O)c2ccccc12 [Example 1, (2S)-3-[[4-[2-hydroxy-4-(trifluoromethyl)phenyl]phthalazin-1-yl]amino]propane-1,2-diol]",50 µg/mL,,
"Oc1cccc(F)c1-c1nnc(N[C@@H]2CCC[C@H](O)C2)c2cnccc12 [Example 47, 3-fluoro-2-[4-[[(1R,3S)-3-hydroxycyclohexyl]amino]pyrido[3,4-d]pyridazin-1-yl]phenol]",> 70.9 µg/mL,68 nM,
"OC[C@@H](O)CNc1nnc(-c2ccc(Cl)c(F)c2O)c2ccccc12 [Example 2, (2S)-3-[[4-(4-chloro-3-fluoro-2-hydroxy-phenyl)phthalazin-1-yl]amino]propane-1,2-diol]",24.6 µg/mL,165 nM,
"CS(=O)(=O)c1ccc(-c2nnc(N[C@@H]3CC[C@@H](O)C3)c3ccccc23)c(O)c1 [Example 18, 2-[4-[[(1R,3R)-3-hydroxycyclopentyl]amino]phthalazin-1-yl]-5-methylsulfonyl-phenol]",> 79.9 µg/mL,738 nM,
